Here are results for 1 molecule from US8314068B2, “P2X7 inhibition of epithelial cancers and papillomas” (University Hospitals of Cleveland, priority 2009, dated 2012).

Series [1] relates to HeLa cells. Put plainly: Apoptosis in HeLa cells. Type of series: cell-based, human.
The conditions of series [2]: biological solutions, range of temperatures and pH; cited from earlier work.
Series [3] addresses P2X7 receptor. To be noted: cited from earlier work.
Series [4] concerns cancer ectocervical, endocervical, endometrial cells and cancer keratinocytes. To be noted: fold lesser apoptosis after BzATP; cited from earlier work.
Series [5] has as its system WT-MDCK cells. Put plainly: Apoptosis in wild-type MDCK cells lacking P2X7. The series is classed as cell-based, canine. To be noted: 100 μM, 8 hrs.
Excerpt: Human epidermal squamous cell carcinoma-9 (SCC-9) cells and Madin Darby canine kidney cells (MDCK, strain II) were obtained from the ATCC. […] Apoptosis may be quantified in terms of percent solubilized DNA (Wang et al, 2004a), or by using the commercial cell-death detection ELISA kit (Roche Applied Science, Nutley, N.J.) (Feng et al, 2006). […] The sequences of the 20-mer ASO that would hybridize to the coding region of exon 7 (nt 724-741), and the RCO were as follows: […] In the RCO, the antisense sequence was randomly replaced with adenine and thymine residues so that the oligonucleotides had the same length (20-mer) and GC content (33%) as the ASO.
Series [6] deals with P2X7 pores. Put plainly: Ethidium bromide influx (P2X7 pore formation) in mouse wild-type keratinocytes. The series is classed as cell-based. As to the method: FIG. 17B: Time course of influx of ethidium bromide (Eth-Br).
(§1) FIG. 17C: Dose response profile comparison between ΔCa^2+i and Eth-Br influx. Cells were treated with each BzATP concentration for […]. Levels of ΔCa^2+i (empty circles) were determined 2 min after adding BzATP; changes in Eth-Br fluorescence (filled circles) were determined 5 min after adding BzATP. Values=means±SD. Experiments were repeated 3 times. AU=arbitrary units.
(§2) Changes in Ca^2+i in cultured cells were determined in terms of changes in intracellular Fluo-4 fluorescence using dynamic confocal laser scanning microscopy. Cultured mouse keratinocytes were loaded with 5 μM Fluo-4/AM, and imaged with a Zeiss LSM 510 inverted real-time confocal microscope. Images were collected at 488 nm/505 nm (exc/emi) at intervals of 10 to 15 seconds after treatment with 100 μM BzATP, added to the perfusate. For ethidium bromide influx experiments, glass-bottomed dishes cultured with mouse keratinocytes were placed in the microscope. Images (collected at 488 nm/505 nm [exc/emi]) were taken before, and at intervals of 30 seconds after adding 5 μM ethidium bromide to the perfusate as described. Average fluorescence intensity was quantified from collated images using MetaVue software (Fryer Company Inc., Huntley, Ill.) by subtracting the basal intensity value.

Series [7] concerns P2X7−/−Pf and P2X7−/−GSK keratinocytes. As to the kind of experiment: Apoptosis in keratinocytes of P2X7-receptor-deficient mice. The series is classed as cell-based, mouse. To be noted: 100 μM BzATP. As to the method: FIG. 16C: BzATP time-response effect in cultured mouse normal keratinocytes (wild-type, C57B1; filled triangles), or in keratinocytes obtained from C57B1 background P2X7-deficient mice (P2X7^−/−Pfizer; empty circles; or P2X7^−/−GSK; filled circles). Values are means (±SD) of 3 experiments for each condition. Changes in apoptosis were determined using cell-death detection ELISA.
Apoptosis of cultured mouse keratinocytes was quantified in terms of percent solubilized DNA, or by using the commercial cell-death detection ELISA kit (Roche Applied Science, Nutley, N.J.). Wang et al., “P2X7-receptor mediated apoptosis of human cervical epithelial cells” Am J Physiol 2004, 287:C1349-C1358; and Feng et al., “A truncated P2X7 receptor variant (P2X7-j) endogenously expressed in cervical cancer cells antagonizes the full-length P2X7 receptor through hetero-oligomerization” J Biol Chem 2006, 281:17228-17237, respectively.
The experiments utilized primary cultures of epidermal keratinocytes generated from 6-8 weeks old wild-type C57B1 mice (Charles River, Wilmington, Mass.); from P2X7^−/−Pfizer mice constructed by deletion of amino acids 506-532 of the C-terminus (Solle et al., “Altered cytokine production in mice lacking P2X(7) receptors” J Biol Chem 2001, 276:125-32), or from P2X7^−/−GSK mice, which have a lacZ gene inserted at the beginning of exon 1, resulting knockout of the receptor. […]

The subject of series [8] is mouse wild-type keratinocytes. As to the kind of experiment: Cytosolic calcium (Fluo-4) in mouse wild-type keratinocytes. Type of series: cell-based. As to the method: FIG. 17A: Time course of changes in cytosolic calcium (ΔCa^2+i), in medium containing 1.2 mM Ca^2+ (upper trace) or 1.2 mM Ca2+ plus 1.2 mM EGTA (lower trace).
as §1, §2

Series [9] concerns DMBA/TPA-induced skin papillomas. As to the kind of experiment: DMBA/TPA mouse skin papilloma model, 12 weeks (Experiment-3). The series is classed as in vivo.
For series [10], the target named is T1, human full-length P2X7 receptor (N-Myc-hP2X7-MDCK cells) (Homo sapiens, UniProt Q99572).
T1 construct: MDCK cells heterologously expressing the human full-length P2X7 receptor tagged with N-Myc at the N-terminus; expressed in transfected cells; host or cells: MDCK (strain II) cells expressing tetracycline-regulated repressor
T1 sequence (Q99572 1-595): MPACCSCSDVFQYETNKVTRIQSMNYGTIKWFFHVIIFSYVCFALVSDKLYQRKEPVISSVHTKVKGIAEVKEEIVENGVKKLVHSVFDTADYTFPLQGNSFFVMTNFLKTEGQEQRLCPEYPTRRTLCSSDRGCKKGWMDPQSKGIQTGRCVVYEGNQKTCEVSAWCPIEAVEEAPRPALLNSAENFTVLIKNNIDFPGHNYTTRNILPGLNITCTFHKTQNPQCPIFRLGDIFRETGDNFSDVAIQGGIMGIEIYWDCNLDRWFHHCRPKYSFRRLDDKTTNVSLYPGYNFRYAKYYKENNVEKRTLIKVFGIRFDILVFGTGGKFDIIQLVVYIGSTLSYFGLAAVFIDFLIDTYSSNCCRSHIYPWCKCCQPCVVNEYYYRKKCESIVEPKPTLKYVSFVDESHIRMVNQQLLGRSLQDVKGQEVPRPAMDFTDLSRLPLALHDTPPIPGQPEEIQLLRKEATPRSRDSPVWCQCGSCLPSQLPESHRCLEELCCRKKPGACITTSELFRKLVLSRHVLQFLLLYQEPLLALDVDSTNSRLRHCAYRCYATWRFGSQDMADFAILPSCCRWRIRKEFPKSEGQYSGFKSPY
Put plainly: Apoptosis and P2X7 expression in N-Myc-hP2X7-MDCK cells. The series is classed as cell-based. To be noted: BzATP 100 μM, 8 hrs.

By EC50 is commonly meant the midpoint of the concentration-response curve. `Nc1ncnc2c1ncn2[C@@H]1O[C@H](COP(=O)(O)OP(=O)(O)OP(=O)(O)O)[C@@H](OC(=O)c2ccc(C(=O)c3ccccc3)cc2)[C@H]1O` [BzATP, 3′-O-(4-benzoylbenzoyl)adenosine triphosphate]: the “effect of BzATP on apoptosis” value in series [1] is listed as “no significant effect”. In addition, the stability result in series [2] was “relatively stable compound in biological solutions and across a broad range of temperatures and pH”. For the same molecule, the EC50 in series [3] is 35 µM. For the same molecule, the “potency at the P2X7 receptor relative to ATP” value in series [3] (greater potency than ATP) was 5-10 fold. Moreover, in series [4], the “apoptosis in cancer cells relative to the respective normal cells” value was 2-5 fold. For the same molecule, in series [5], the BzATP-induced apoptosis entry is given as “did not induce apoptosis”. In [6], the “concentration of pre-maximal response, ethidium bromide influx” value fell in the range of 100 to 250 µM; the “onset of pore formation and augmented calcium influx after adding BzATP” value was in the range of 30 to 60 s; the “threshold concentration, ethidium bromide influx” value fell in the range of 50 to 100 nM. Moreover, in [6] (100 μM BzATP), the “influx of ethidium bromide” value is “acute increase in the influx of ethidium bromide”. Besides, in [7], the induction of apoptosis result is on record as “failed to induce apoptosis”. For the same molecule, in series [8], the “concentration of pre-maximal response, cytosolic calcium” value fell in the range of 100 to 250 µM and the “threshold concentration, cytosolic calcium” value lay within 50 to 100 nM. In series [8] (100 μM BzATP, 1.2 mM Ca^2+), the “change in cytosolic calcium” value is on record as “acute increase in cytosolic calcium” and the “duration of increase in cytosolic calcium” value is listed as “at least 6 minutes”. The “TUNEL staining of papilloma tissues” value in series [9] (biopsy at week 10, basal/parabasal regions) is on record as “intense TUNEL staining”. Besides, in series [9] (versus DMBA/TPA group), the “decrease of mean number of papillomas per animal” value is “about 25%” and the “decrease of mean papilloma size” value was “about 45%”. In series [9] (week 6, DMBA/TPA+BzATP group), the “animals having at least one papilloma” value was found to be 53.8%. For the same molecule, the “papillomas per animal (mean±SEM)” value in [9] (week 10, DMBA/TPA+BzATP group) is reported as 1.23±0.34. For the same molecule, in series [9] (week 12, DMBA/TPA+BzATP group), the “animals with at least one skin papilloma” value amounted to 78% and the “mean papilloma size per animal (mean±SEM)” value turned out to be 3.46 ±0.73 mm. In addition, the augmentation of apoptosis in [10] came out at 2.5 fold.
